Patent US11407715B2, “Substituted indoline derivatives as dengue viral replication inhibitors” (JANSSEN PHARMACEUTICALS, INC., priority 2017, dated 2022)

How the values were obtained:
[1] = in vitro; conditions: African green monkey
[2] = test system: DENV-2 16681 strain; assay: microbe, parasite or virus in culture; format: cell-based, Dengue virus; conditions: for EC50: DENV-2 16681 eGFP, Vero cells, MOI 0.5, 3 days; for SI: SI=CC50/EC50, DENV-2 antiviral assay
[3] = test system: Vero cells; conditions: African green monkey
[4] = Dengue virus, DENV2, Vero, 72 h

Row | SMILES | CC50 [1] | EC50 [2, 4] | SI [2] | CC50 [3] | EC50 [2]
1 | COc1cc(NC(C(=O)N2CCc3ccc(OC(F)(F)F)cc32)c2ccc(Cl)cc2)cc(OCCC(C)C(=O)O)c1 (racemic) [Compound 1, 4-(3-((1-(4-chlorophenyl)-2-oxo-2-(6-(trifluoromethoxy)indolin-1-yl)ethyl)amino)-5-methoxyphenoxy)-2-methylbutanoic acid] | 11 µM | 0.5 nM | 24400 | – | –
2 | COc1cc(NC(C(=O)N2CCc3ccc(OC(F)(F)F)cc32)c2ccc(Cl)cc2)cc(OCCC(C)(C)C(=O)O)c1 (racemic) [Compound 2, 4-(3-((1-(4-chlorophenyl)-2-oxo-2-(6-(trifluoromethoxy)indolin-1-yl)ethyl)amino)-5-methoxyphenoxy)-2,2-dimethylbutanoic acid] | 12 µM | 0.62 nM | 19200 | – | –
3 | COc1cc(NC(C(=O)N2CCc3ccc(OC(F)(F)F)cc32)c2ccc(Cl)cc2)cc(OCCC2(C(=O)O)CC2)c1 (racemic) [Compound 3, 1-(2-(3-((1-(4-chlorophenyl)-2-oxo-2-(6-(trifluoromethoxy)indolin-1-yl)ethyl)amino)-5-methoxyphenoxy)ethyl)cyclopropane-1-carboxylic acid] | 10 µM | 0.5 nM | 17700 | – | –
4 | COc1cc(NC(C(=O)N2CCc3ccc(OC(F)(F)F)cc32)c2ccc(Cl)cc2)cc(OCC(C)CC(=O)O)c1 (racemic) [Compound 4, 4-(3-((1-(4-chlorophenyl)-2-oxo-2-(6-(trifluoromethoxy)indolin-1-yl)ethyl)amino)-5-methoxyphenoxy)-3-methylbutanoic acid] | 10 µM | 0.14 nM | 73900 | – | –
5 | COc1cc(NC(C(=O)N2CCc3ccc(OC(F)(F)F)cc32)c2ccc(Cl)cc2)cc(OCC2(CC(=O)O)CC2)c1 (racemic) [Compound 5, 2-(1-((3-((1-(4-chlorophenyl)-2-oxo-2-(6-(trifluoromethoxy)indolin-1-yl)ethyl)amino)-5-methoxyphenoxy)methyl)cyclopropyl)acetic acid] | 9.7 µM | 0.92 nM | 11300 | – | –
6 | COc1cc(NC(C(=O)N2CCc3ccc(OC(F)(F)F)cc32)c2ccc(Cl)cc2)cc(OCCC(C)C(=O)O)c1 (single isomer, unassigned) [Compound 1A] | – | – | 523 | 9.6 µM | 18 nM
7 | COc1cc(NC(C(=O)N2CCc3ccc(OC(F)(F)F)cc32)c2ccc(Cl)cc2)cc(OCCC(C)C(=O)O)c1 (single isomer, unassigned) [Compound 1B] | – | – | 579 | 10 µM | 18 nM
8 | COc1cc(NC(C(=O)N2CCc3ccc(OC(F)(F)F)cc32)c2ccc(Cl)cc2)cc(OCCC(C)(C)C(=O)O)c1 (single isomer, unassigned) [Compound 2B] | – | – | 565 | 11 µM | 19 nM
9 | COc1cc(NC(C(=O)N2CCc3ccc(OC(F)(F)F)cc32)c2ccc(Cl)cc2)cc(OCC(C)CC(=O)O)c1 (single isomer, unassigned) [Compound 4B] | – | – | 935 | 10 µM | 11 nM
10 | COc1cc(NC(C(=O)N2CCc3ccc(OC(F)(F)F)cc32)c2ccc(Cl)cc2)cc(OCC2(CC(=O)O)CC2)c1 (single isomer, unassigned) [Compound 5B] | – | – | 921 | 10 µM | 11 nM
11 | COc1cc(CCCCC(=O)O)cc(NC(C(=O)N2CCc3ccc(OC(F)(F)F)cc32)c2ccc(Cl)cc2)c1 (single isomer, unassigned) [Compound 14B] | – | – | 156 | 9.3 µM | 60 nM
12 | COc1cc(NC(C(=O)N2CCc3ccc(OC(F)(F)F)cc32)c2ccc(Cl)cc2OC)cc(OCCC(C)C(=O)O)c1 (single isomer, unassigned) [Compound 17B] | – | – | 59 | 11 µM | 180 nM
13 | COc1cc(NC(C(=O)N2CCc3cc(OC)c(C(F)(F)F)cc32)c2ccc(Cl)cc2)cc(OCCC(C)C(=O)O)c1 (single isomer, unassigned) [Compound 20B] | – | – | 69 | 12 µM | 180 nM
14 | COc1cc(NC(C(=O)N2CCc3cc(F)c(OC(F)(F)F)cc32)c2ccc(Cl)cc2)cc(OCC2CC2C(=O)O)c1 (single isomer, unassigned) [Compound 26B, (1 S*,2S*)-2-((3-((1-(4-chlorophenyl)-2-(5-fluoro-6-(trifluoromethoxy)indolin-1-yl)-2-oxoethyl)amino)-5-methoxyphenoxy)methyl)-cyclopropanecarboxylic Acid] | – | – | 10600 | 12 µM | 0.94 nM
15 | COc1cc(NC(C(=O)N2CCc3cc(F)c(OC(F)(F)F)cc32)c2ccc(Cl)cc2)cc(OC2CC(C(=O)O)C2)c1 (single isomer, unassigned) [Compound 27A] | – | – | 14300 | 11 µM | 0.41 nM
16 | COc1cc(NC(C(=O)N2CCc3cc(OC)c(Cl)cc32)c2ccc(Cl)cc2)cc(OC2CC(C(=O)O)C2)c1 (single isomer, unassigned) [Compound 32A] | – | – | 205 | 13 µM | 63 nM
17 | COc1cc(NC2CC(C(=O)O)C2)cc(NC(C(=O)N2CCc3ccc(OC(F)(F)F)cc32)c2ccc(Cl)cc2)c1 (single isomer, unassigned) [Compound 33B] | – | – | 1760 | 14 µM | 7.9 nM
18 | COc1cc(NC(C(=O)N2CCc3ccc(OC(F)(F)F)cc32)c2ccc(Cl)cc2)cc(OCC2CC2C(=O)O)c1 (stereo not drawn) [Compound 6BA] | – | – | 703 | 8.7 µM | 12 nM

Row | SMILES | CC50 [1] | EC50 [2, 4] | SI [2] | CC50 [3] | EC50 [2]
19 | COc1cc(NC(C(=O)N2CCc3ccc(OC(F)(F)F)cc32)c2ccc(Cl)cc2)cc(OC2CC(C(=O)O)C2)c1 (stereo not drawn) [Compound 7A] | – | – | 1130 | 10 µM | 9.1 nM
20 | COc1cc(NC(C(=O)N2CCc3ccc(OC(F)(F)F)cc32)c2ccc(Cl)cc2)cc(OC2CC(C(=O)O)C2)c1 (stereo not drawn) [Compound 8, (1s,3s)-3-(3-((1-(4-chlorophenyl)-2-oxo-2-(6-(trifluoromethoxy)indolin-1-yl)ethyl)amino)-5-methoxyphenoxy)cyclobutanecarboxylic acid] | – | – | >126733 | 13 µM | 0.048 nM
21 | COc1cc(NC(C(=O)N2CCc3ccc(OC(F)(F)F)cc32)c2ccc(Cl)cc2)cc(OC2CC(C(=O)O)C2)c1 (stereo not drawn) [Compound 8A] | – | – | 11600 | 12 µM | 0.86 nM
22 | COc1cc(NC(C(=O)N2CCc3ccc(OC(F)(F)F)cc32)c2ccc(Cl)cc2)cc(OCC2CC(C(=O)O)C2)c1 (stereo not drawn) [Compound 10A] | – | – | 3790 | 10 µM | 2.7 nM
23 | COc1cc(NC(C(=O)N2CCc3ccc(OC(F)(F)F)cc32)c2ccc(Cl)cc2)cc(OCC2CC(C(=O)O)C2)c1 (stereo not drawn) [Compound 11, (1r,3r)-3-((3-((1-(4-chlorophenyl)-2-oxo-2-(6-(trifluoromethoxy)indolin-1-yl)ethyl)amino)-5-methoxyphenoxy)methyl)cyclobutanecarboxylic acid] | – | – | 97100 | 12 µM | 0.13 nM
24 | COc1cc(NC(C(=O)N2CCc3ccc(OC(F)(F)F)cc32)c2ccc(Cl)cc2)cc(OCC2CC(C(=O)O)C2)c1 (stereo not drawn) [Compound 11A] | – | – | 2710 | 10 µM | 3.8 nM
25 | COc1cc(NC(C(=O)N2CCc3ccc(OC(F)(F)F)cc32)c2ccc(Cl)cc2OC)cc(OCC2CC2C(=O)O)c1 (stereo not drawn) [Compound 19BA] | – | – | 707 | 11 µM | 16 nM
26 | COc1cc(NC(C(=O)N2CCc3cc(OC)c(C(F)(F)F)cc32)c2ccc(Cl)cc2)cc(OCC2CC2C(=O)O)c1 (stereo not drawn) [Compound 22BA] | – | – | 786 | 12 µM | 15 nM
27 | COc1cc(NC(C(=O)N2CCc3cc(OC)c(C(F)(F)F)cc32)c2ccc(Cl)cc2)cc(OCC2CC(C(=O)O)C2)c1 (stereo not drawn) [Compound 24A] | – | – | 469 | 11 µM | 24 nM
28 | COc1cc(NC(C(=O)N2CCc3cc(OC)c(C(F)(F)F)cc32)c2ccc(Cl)cc2)cc(OCC2CC(C(=O)O)C2)c1 (stereo not drawn) [Compound 25, (1r,3r)-3-((3-((1-(4-chlorophenyl)-2-(5-methoxy-6-(trifluoromethyl)indolin-1-yl)-2-oxoethyl)amino)-5-methoxyphenoxy)methyl)-cyclobutanecarboxylic Acid] | – | – | 26800 | 12 µM | 0.45 nM
29 | COc1cc(NC(C(=O)N2CCc3cc(OC)c(C(F)(F)F)cc32)c2ccc(Cl)cc2)cc(OCC2CC(C(=O)O)C2)c1 (stereo not drawn) [Compound 25A] | – | – | 1640 | 12 µM | 7.1 nM
30 | COc1cc(NC(C(=O)N2CCc3ccc(OC(F)(F)F)cc32)c2ccc(Cl)cc2)cc(OCC2(F)CC2C(=O)O)c1 (stereo not drawn) [Compound 28AA] | – | – | 34 | 11 µM | 330 nM
31 | COc1cc(NC(C(=O)N2CCc3ccc(OC(F)(F)F)cc32)c2ccc(Cl)cc2)cc(OCC2(F)CC2C(=O)O)c1 (stereo not drawn) [Compound 28BA] | – | – | 574 | 10 µM | 17 nM
32 | COc1cc(NC(C(=O)N2CCc3ccc(OC(F)(F)F)cc32)c2ccc(Cl)cc2)cc(OCC2(F)CC2C(=O)O)c1 (stereo not drawn) [Compound 29AA] | – | – | 151 | 9.2 µM | 61 nM
33 | COc1cc(NC(C(=O)N2CCc3ccc(OC(F)(F)F)cc32)c2ccc(Cl)cc2)cc(OCC2(F)CC2C(=O)O)c1 (stereo not drawn) [Compound 29BA] | – | – | 2890 | 9.8 µM | 3.4 nM
34 | COc1cc(NC(C(=O)N2CCc3cc(F)c(OC(F)(F)F)cc32)c2ccc(Cl)cc2)cc(OCC2CC(C(=O)O)C2)c1 (stereo not drawn) [Compound 30B] | – | – | 1800 | 11 µM | 5.9 nM
35 | COc1cc(NC(C(=O)N2CCc3cc(F)c(OC(F)(F)F)cc32)c2ccc(Cl)cc2)cc(OCC2CC(C(=O)O)C2)c1 (stereo not drawn) [Compound 31B] | – | – | 4400 | 12 µM | 2.6 nM
